Measured values as given in ChEMBL document CHEMBL3885861, “Open TG-GATES”.

Species on record: Rattus norvegicus
Test: Open TG-GATES - Regimen: Daily Repeat
Format: toxicity, organism-based, Sprague-Dawley
Design: regimen Daily Repeat, gender Male, age 6 weeks
Conditions: in vivo, po, route gavage; for APTT / Bas / Eos / Fbg / Hb / Ht / Lym / MCH / MCHC / MCV / Mono / Neu / PT / Plat / RBC / Ret / WBC: tissue Blood; for KIDNEY_L / KIDNEY_R / KIDNEY_TOTAL: tissue Kidney; for LIVER: tissue Liver; for A/G / ALP / ALT / AST / BUN / CRE / Ca / Cl / DBIL / GLC / IP / K / LDH / Na / PL / RALB / TBIL / TC / TG / TP / gamma-GTP: tissue Plasma
[1] = 1200 mg/kg, 72 h, dose level Middle, time 3 day
[2] = 1200 mg/kg, […], dose level Middle, time 7 day
[3] = 1200 mg/kg, […], dose level Middle, time 14 day
[4] = 1200 mg/kg, […], dose level Middle, time 28 day
[5] = 4000 mg/kg, 72 h, dose level High, time 3 day
[6] = 4000 mg/kg, […], dose level High, time 7 day
[7] = 4000 mg/kg, […], dose level High, time 14 day
[8] = 4000 mg/kg, […], dose level High, time 28 day

CCO [ALCOHOL]
TERMINAL_BW [1]: 236.1 g
APTT [1]: 17.5 s
Bas [1]: 0%
Eos [1]: 1.2%
Fbg [1]: 209 mg/dL
Hb [1]: 13.9 g/dL
Ht [1]: 41%
Lym [1]: 74.6%
MCH [1]: 21.6 pg
MCHC [1]: 33.8%
MCV [1]: 64 fL
Mono [1]: 5.8%
Neu [1]: 18%
PT [1]: 11.3 s
Plat [1]: 124.3 x10_4/uL
RBC [1]: 642.4 x10_4/ul
Ret [1]: 7.7%
WBC [1]: 106.2 x10_2/uL
KIDNEY_L [1]: 1.1 g
KIDNEY_R [1]: 1.1 g
KIDNEY_TOTAL [1]: 2.1 g
LIVER [1]: 11.5 g
A/G [1]: 2.3
ALP [1]: 854.8 IU/L
ALT [1]: 38.2 IU/L
AST [1]: 65 IU/L
BUN [1]: 20.2 mg/dL
CRE [1]: 0.6 mg/dL
Ca [1]: 11.2 mg/dL
Cl [1]: 104 meq/L
DBIL [1]: 0.026 mg/dL
GLC [1]: 208.2 mg/dL
IP [1]: 9 mg/dL
K [1]: 4.7 meq/L
LDH [1]: 113.6 IU/L
Na [1]: 141 meq/L
PL [1]: 145.6 mg/dL
RALB [1]: 4.1 g/dL
TBIL [1]: 0.3 mg/dL
TC [1]: 74.2 mg/dL
TG [1]: 89.2 mg/dL
TP [1]: 5.8 g/dL
gamma-GTP [1]: 1.4 IU/L
TERMINAL_BW [2]: 268.6 g
TERMINAL_BW [3]: 302.2 g
TERMINAL_BW [4]: 371.8 g
APTT [2]: 18.1 s
Bas [2]: 0%
Eos [2]: 0.8%
Fbg [2]: 227.4 mg/dL
Hb [2]: 14.3 g/dL
Ht [2]: 42.2%
Lym [2]: 81.8%
MCH [2]: 21.3 pg
MCHC [2]: 33.8%
MCV [2]: 62.9 fL
Mono [2]: 6.2%
Neu [2]: 11.4%
PT [2]: 11 s
Plat [2]: 127.6 x10_4/uL
RBC [2]: 670.6 x10_4/ul
Ret [2]: 6.1%
WBC [2]: 112 x10_2/uL
APTT [3]: 18.2 s
Bas [3]: 0%
Eos [3]: 1.2%
Fbg [3]: 227 mg/dL
Hb [3]: 15.4 g/dL
Ht [3]: 45.5%
Lym [3]: 80%
MCH [3]: 20.6 pg
MCHC [3]: 33.9%
MCV [3]: 60.8 fL
Mono [3]: 5.4%
Neu [3]: 13.6%
PT [3]: 11.4 s
Plat [3]: 115.9 x10_4/uL
RBC [3]: 749 x10_4/ul
Ret [3]: 4.5%
WBC [3]: 119.1 x10_2/uL
APTT [4]: 17.5 s
Bas [4]: 0%
Eos [4]: 1.4%
Fbg [4]: 224 mg/dL
Hb [4]: 15.4 g/dL
Ht [4]: 46.3%
Lym [4]: 73.2%
MCH [4]: 19.1 pg
MCHC [4]: 33.3%
MCV [4]: 57.3 fL
Mono [4]: 6.6%
Neu [4]: 18.8%
PT [4]: 11.1 s
Plat [4]: 104.5 x10_4/uL
RBC [4]: 809 x10_4/ul
Ret [4]: 7%
WBC [4]: 96.6 x10_2/uL
KIDNEY_L [2]: 1.1 g
KIDNEY_R [2]: 1.2 g
KIDNEY_TOTAL [2]: 2.3 g
KIDNEY_L [3]: 1.2 g
KIDNEY_R [3]: 1.2 g
KIDNEY_TOTAL [3]: 2.4 g
KIDNEY_L [4]: 1.3 g
KIDNEY_R [4]: 1.4 g
KIDNEY_TOTAL [4]: 2.7 g
LIVER [2]: 13.2 g
LIVER [3]: 13.7 g
LIVER [4]: 14.7 g
A/G [2]: 2.3
ALP [2]: 946.6 IU/L
ALT [2]: 37.4 IU/L
AST [2]: 64.8 IU/L
BUN [2]: 20.8 mg/dL
CRE [2]: 0.5 mg/dL
Ca [2]: 10.6 mg/dL
Cl [2]: 103.8 meq/L
DBIL [2]: 0 mg/dL
GLC [2]: 202 mg/dL
IP [2]: 8.4 mg/dL
K [2]: 4.8 meq/L
LDH [2]: 108.4 IU/L
Na [2]: 141 meq/L
PL [2]: 154.4 mg/dL
RALB [2]: 4.1 g/dL
TBIL [2]: 0.3 mg/dL
TC [2]: 70.6 mg/dL
TG [2]: 132.4 mg/dL
TP [2]: 6 g/dL
gamma-GTP [2]: 1.4 IU/L
A/G [3]: 1.8
ALP [3]: 821.6 IU/L
ALT [3]: 33 IU/L
AST [3]: 62.2 IU/L
BUN [3]: 19.2 mg/dL
CRE [3]: 0.5 mg/dL
Ca [3]: 10.8 mg/dL
Cl [3]: 105 meq/L
DBIL [3]: 0.018 mg/dL
GLC [3]: 205.6 mg/dL
IP [3]: 7.4 mg/dL
K [3]: 4.5 meq/L
LDH [3]: 104.4 IU/L
Na [3]: 141.8 meq/L
PL [3]: 159.8 mg/dL
RALB [3]: 3.9 g/dL
TBIL [3]: 0.3 mg/dL
TC [3]: 79 mg/dL
TG [3]: 114.2 mg/dL
TP [3]: 6.1 g/dL
gamma-GTP [3]: 1 IU/L
A/G [4]: 1.5
ALP [4]: 558.4 IU/L
ALT [4]: 32.8 IU/L
AST [4]: 64 IU/L
BUN [4]: 21.4 mg/dL
CRE [4]: 0.6 mg/dL
Ca [4]: 10.2 mg/dL
Cl [4]: 107.4 meq/L
DBIL [4]: 0 mg/dL
GLC [4]: 221.2 mg/dL
IP [4]: 6.6 mg/dL
K [4]: 4.4 meq/L
LDH [4]: 83 IU/L
Na [4]: 141 meq/L
PL [4]: 151.4 mg/dL
RALB [4]: 3.6 g/dL
TBIL [4]: 0.3 mg/dL
TC [4]: 70.6 mg/dL
TG [4]: 181.6 mg/dL
TP [4]: 6.1 g/dL
gamma-GTP [4]: 1.4 IU/L
TERMINAL_BW [5]: 222.6 g
APTT [5]: 17.5 s
Bas [5]: 0%
Eos [5]: 1.4%
Fbg [5]: 223.4 mg/dL
Hb [5]: 14 g/dL
Ht [5]: 41.5%
Lym [5]: 78%
MCH [5]: 20.9 pg
MCHC [5]: 33.7%
MCV [5]: 62.1 fL
Mono [5]: 5.6%
Neu [5]: 15.8%
PT [5]: 11.3 s
Plat [5]: 129.6 x10_4/uL
RBC [5]: 669.2 x10_4/ul
Ret [5]: 5.5%
WBC [5]: 91 x10_2/uL
KIDNEY_L [5]: 1 g
KIDNEY_R [5]: 1 g
KIDNEY_TOTAL [5]: 2 g
LIVER [5]: 10.5 g
A/G [5]: 2.3
ALP [5]: 775 IU/L
ALT [5]: 32 IU/L
AST [5]: 61 IU/L
BUN [5]: 16.8 mg/dL
CRE [5]: 0.5 mg/dL
Ca [5]: 10.7 mg/dL
Cl [5]: 103.6 meq/L
DBIL [5]: 0.022 mg/dL
GLC [5]: 206 mg/dL
IP [5]: 8.2 mg/dL
K [5]: 4.7 meq/L
LDH [5]: 95.2 IU/L
Na [5]: 140 meq/L
PL [5]: 146.4 mg/dL
RALB [5]: 4 g/dL
TBIL [5]: 0.3 mg/dL
TC [5]: 77.6 mg/dL
TG [5]: 124.4 mg/dL
TP [5]: 5.7 g/dL
gamma-GTP [5]: 1.4 IU/L
TERMINAL_BW [6]: 252.2 g
TERMINAL_BW [7]: 307.3 g
TERMINAL_BW [8]: 369.5 g
APTT [6]: 18.2 s
Bas [6]: 0%
Eos [6]: 1%
Fbg [6]: 216.8 mg/dL
Hb [6]: 14.1 g/dL
Ht [6]: 41.6%
Lym [6]: 71%
MCH [6]: 20.7 pg
MCHC [6]: 33.8%
MCV [6]: 61.1 fL
Mono [6]: 6.4%
Neu [6]: 21.8%
PT [6]: 11.5 s
Plat [6]: 110.2 x10_4/uL
RBC [6]: 680.2 x10_4/ul
Ret [6]: 5.4%
WBC [6]: 93.3 x10_2/uL
APTT [7]: 16.8 s
Bas [7]: 0%
Eos [7]: 0.8%
Fbg [7]: 217.6 mg/dL
Hb [7]: 15 g/dL
Ht [7]: 45%
Lym [7]: 82.8%
MCH [7]: 20.4 pg
MCHC [7]: 33.3%
MCV [7]: 61.2 fL
Mono [7]: 5%
Neu [7]: 11.4%
PT [7]: 11.5 s
Plat [7]: 112.1 x10_4/uL
RBC [7]: 737 x10_4/ul
Ret [7]: 4.1%
WBC [7]: 125 x10_2/uL
APTT [8]: 16.3 s
Bas [8]: 0%
Eos [8]: 1.6%
Fbg [8]: 210.6 mg/dL
Hb [8]: 15.5 g/dL
Ht [8]: 46.4%
Lym [8]: 70.4%
MCH [8]: 19.2 pg
MCHC [8]: 33.5%
MCV [8]: 57.2 fL
Mono [8]: 7.6%
Neu [8]: 20.6%
PT [8]: 11.4 s
Plat [8]: 106.5 x10_4/uL
RBC [8]: 813.2 x10_4/ul
Ret [8]: 6%
WBC [8]: 123.4 x10_2/uL
KIDNEY_L [6]: 1.1 g
KIDNEY_R [6]: 1.1 g
KIDNEY_TOTAL [6]: 2.1 g
KIDNEY_L [7]: 1.2 g
KIDNEY_R [7]: 1.2 g
KIDNEY_TOTAL [7]: 2.5 g
KIDNEY_L [8]: 1.3 g
KIDNEY_R [8]: 1.3 g
KIDNEY_TOTAL [8]: 2.7 g
LIVER [6]: 11.7 g
LIVER [7]: 13.6 g
LIVER [8]: 15 g
A/G [6]: 2.4
ALP [6]: 842.2 IU/L
ALT [6]: 32.6 IU/L
AST [6]: 63 IU/L
BUN [6]: 17 mg/dL
CRE [6]: 0.5 mg/dL
Ca [6]: 10.6 mg/dL
Cl [6]: 103.8 meq/L
DBIL [6]: 0 mg/dL
GLC [6]: 206.8 mg/dL
IP [6]: 8.1 mg/dL
K [6]: 4.4 meq/L
LDH [6]: 92.2 IU/L
Na [6]: 141.2 meq/L
PL [6]: 145.6 mg/dL
RALB [6]: 4.1 g/dL
TBIL [6]: 0.3 mg/dL
TC [6]: 68.2 mg/dL
TG [6]: 99.6 mg/dL
TP [6]: 5.9 g/dL
gamma-GTP [6]: 1.4 IU/L
A/G [7]: 1.9
ALP [7]: 806.4 IU/L
ALT [7]: 37.8 IU/L
AST [7]: 71.4 IU/L
BUN [7]: 18.6 mg/dL
CRE [7]: 0.6 mg/dL
Ca [7]: 10.8 mg/dL
Cl [7]: 104.2 meq/L
DBIL [7]: 0.05 mg/dL
GLC [7]: 207.2 mg/dL
IP [7]: 7.9 mg/dL
K [7]: 4.5 meq/L
LDH [7]: 121.4 IU/L
Na [7]: 141.6 meq/L
PL [7]: 160.8 mg/dL
RALB [7]: 3.9 g/dL
TBIL [7]: 0.3 mg/dL
TC [7]: 78.8 mg/dL
TG [7]: 143 mg/dL
TP [7]: 6 g/dL
gamma-GTP [7]: 1 IU/L
A/G [8]: 1.8
ALP [8]: 599.4 IU/L
ALT [8]: 34.6 IU/L
AST [8]: 66.6 IU/L
BUN [8]: 19.6 mg/dL
CRE [8]: 0.6 mg/dL
Ca [8]: 10.3 mg/dL
Cl [8]: 107 meq/L
DBIL [8]: 0.006 mg/dL
GLC [8]: 213.6 mg/dL
IP [8]: 6.2 mg/dL
K [8]: 4.5 meq/L
LDH [8]: 89.6 IU/L
Na [8]: 140.4 meq/L
PL [8]: 153.6 mg/dL
RALB [8]: 3.9 g/dL
TBIL [8]: 0.3 mg/dL
TC [8]: 73.2 mg/dL
TG [8]: 173.4 mg/dL
TP [8]: 6.1 g/dL
gamma-GTP [8]: 1.4 IU/L
